Assays:
[1] = test system: CGS-21680 induced catalepsy; experiment: Acute CGS-21680 induced catalepsy test; format: in vivo, rat; details: i.p. in DMSO, 0.1-10 mg/kg; listed as 8-(phenylethynyl)-DPMX
Experimental: (§1) Animals were administered with Reserpine or CGS-21680 according to methods known to the skilled person in the art. These models and procedures are e.g. described by Ferré S. et al., Neurosci. Let., 1991, 130, 162; Ferré S. et al., Neuroscience, 1992, 51, 501; Kafka S. H. et al., Eur. J. Pharmacol., 1996, 295, 147; Rimondini R. et al., Neuropsychopharmacology, 1997, 17, 82 and are herein incorporated by reference. In the acute CGS-21680 induced catalepsy model (CGS model) the test compounds (TC, compounds according to the present invention) and CGS-21680 (i.p. 2 mg/kg) were administered 60 minutes before the start of the catalepsy bar measurement and behavioural testing described below (see also FIG. 1). In the acute Reserpine induced catalepsy model (RES model Resperine (subcutaneously, 3 mg/kg) was injected 24 h prior to the test compound application. Catalepsy bar measurement took place 60 minutes after test compound application (see FIG. 1). Test compounds were administered i.p. in DMSO in following doses (mg/kg): 0.1, 0.3, 1, 3, 10.
(§2) Dimethylsulfoxide (DMSO) was used as vehicle for the test compounds and Reserpine. Reserpine was dissolved in DMSO in a concentration of 3 mg/ml. A 10% (w/v) Cyclodextrin solution was used as vehicle for CGS-21680. CGS 21680 was dissolved in 10% (w/v) Cyclodextrine in a concentration of 2 mg/ml.
Caffeine was used as a reference compound in the CGS-21680 induced catalepsy model. A caffeine solution was prepared with water for injection purposes to a concentration of 30 mg/ml. The solution was administered intraperitoneally in a volume of 1 ml/kg (30 mg/kg) 30 minutes before the beginning of testing and after CGS-21680 pre-treatment (1 hour prior to testing).
The catalepsy bar after CGS-21680 administration was measured (CAT) as follows: The rat was placed with its forepaws on a log of wood. […] If the animal descended faster than 1 second, the trial was regarded as invalid. If more than 20 trials were rated as invalid, the values of all uncompleted trials were noted as 0. The animal was tested until five trials had been completed and the time for each trial was noted. Only the values of the last three trials were used for the analysis. The following parameters were calculated: maximum time to descend (s) and median time to descend (s).
Behavioural observation (BO) included the measurement of the body tone, inclined plane and grip strength.
The rat is taken in the hand of the observer and the animal's body tone is rated as normal, soft or hard. The rating is performed immediately after taking the animal from its home cage before performance of catalepsy testing. The following parameters were calculated: mean occurrence of hard body tone and mean occurrence of soft body tone.
The rat is horizontally placed to an inclined plane for a maximum time of 30 seconds. Time to reach bottom or top is measured. […] The test is performed after catalepsy testing. Time to leave the inclined plane(s) was measured.
The rat is put on a grip and the observer pulls the animal back on his tail. The strength (fore paws and hind paws) by which it holds on the grid is scored as grasping and pulling, grasping without pulling or no grasping. The test is performed after the inclined plane test. The following parameters were calculated: mean score of fore paw grip strength and mean score of hind paw grip strength.
(§3) All statistical tests were performed two tailed with a value of p<0.05 considered as significant.
(§4) To assess the effects of CGS-21680 and Reserpine pre-treatment compared to vehicle treated controls statistical comparisons between the test groups were performed using a U test statistic.
To assess the effects of test compounds on CGS-21680 and Reserpine pre-treated animals correlation analyses including animals from test groups and the respective test compound-treated groups were performed. […]

human A2A receptor = human A2A receptor (Homo sapiens, UniProt P29274); experiment: Human A2A receptor IC50/Imax (unpublished results); format: binding
[2] = test system: Reserpine induced catalepsy; experiment: Acute Reserpine induced catalepsy test; format: in vivo, rat; details: i.p. in DMSO, 0.1-10 mg/kg; listed as 8-(phenylethynyl)-DPMX
Experimental: as §1, §2
Apomorphine was used as a reference compound in the Reserpine induced catalepsy model. Apomorphine injection solution was diluted with purified water to a concentration of 0.3 mg/ml. The solution was administered subcutaneously (s.c.) in a volume of 1 ml/kg (0.3 mg/kg) 20 minutes before the begin of testing after Reserpine pre-treatment (25 hours prior to testing).
The catalepsy bar after Reserpine administration was measured (CAT) as follows: The rat was placed with its forepaws on a log of wood. […] The animal was tested for three trials and the time for each trial was noted. The following parameters were calculated: maximum time to descend (s) and median time to descend (s). […]
as §3, §4
To assess the effects of test compounds on CGS-21680 and Reserpine pre-treated animals correlation analyses including animals from test groups and the respective test compound-treated groups were performed.
Additionally, parametric and non-parametric comparisons for the median catalepsy measure were performed to assess the reliability of the method. In case of parametric testing a GLM analyses was performed including animals from a control group (only vehicle treated animals) and the respective test compound-treated groups with dose as a categorical factor. In case of a significant result, a Dunnett's post hoc test was performed between the according test compound groups and a control group as reference group. In case of non-parametric testing a Kruskal-Wallis H-test was performed including animals from a control group and the respective test compound groups. In case of a significant result single U-test comparisons were performed between a control group and the groups treated with different doses of the test compound.

[3] = Water solubility (statement); format: physicochemical; details: listed as 8-(phenylethynyl)-DMPX

Sequence of human A2A receptor (P29274 whole entry): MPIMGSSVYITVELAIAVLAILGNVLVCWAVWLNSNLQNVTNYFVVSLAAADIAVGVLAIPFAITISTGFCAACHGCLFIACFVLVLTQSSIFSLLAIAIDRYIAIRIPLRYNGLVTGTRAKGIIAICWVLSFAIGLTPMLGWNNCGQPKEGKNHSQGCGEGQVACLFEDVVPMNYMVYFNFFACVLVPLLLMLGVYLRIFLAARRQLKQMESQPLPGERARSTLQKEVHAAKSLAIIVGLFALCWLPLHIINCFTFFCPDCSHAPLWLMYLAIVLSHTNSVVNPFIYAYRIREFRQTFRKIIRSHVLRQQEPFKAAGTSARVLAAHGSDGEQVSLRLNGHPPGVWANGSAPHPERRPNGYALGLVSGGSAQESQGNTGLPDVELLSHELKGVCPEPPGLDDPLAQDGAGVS

IC50 (human A2A receptor): > 300 nM | Imax at the human receptor (human A2A receptor): about 37% | water solubility (in words) [3]: low solubility
Compound: C#CCn1c(=O)c2c(nc(C#Cc3ccccc3)n2C)n(C)c1=O
effect on catalepsy time in acute CGS-21680 induced catalepsy model [1]: inactive | effect on catalepsy time in acute Reserpine induced catalepsy model [2]: inactive

From patent publication US20080221134A1, “8-ALKYNYLXANTHINES AND DERIVATIVES” (priority 2006, published 2008)
